Target: T1, human Kv3.3 channels (Homo sapiens, UniProt Q14003)
T1 construct: expressed in transfected cells
T1 sequence (Q14003 1-757): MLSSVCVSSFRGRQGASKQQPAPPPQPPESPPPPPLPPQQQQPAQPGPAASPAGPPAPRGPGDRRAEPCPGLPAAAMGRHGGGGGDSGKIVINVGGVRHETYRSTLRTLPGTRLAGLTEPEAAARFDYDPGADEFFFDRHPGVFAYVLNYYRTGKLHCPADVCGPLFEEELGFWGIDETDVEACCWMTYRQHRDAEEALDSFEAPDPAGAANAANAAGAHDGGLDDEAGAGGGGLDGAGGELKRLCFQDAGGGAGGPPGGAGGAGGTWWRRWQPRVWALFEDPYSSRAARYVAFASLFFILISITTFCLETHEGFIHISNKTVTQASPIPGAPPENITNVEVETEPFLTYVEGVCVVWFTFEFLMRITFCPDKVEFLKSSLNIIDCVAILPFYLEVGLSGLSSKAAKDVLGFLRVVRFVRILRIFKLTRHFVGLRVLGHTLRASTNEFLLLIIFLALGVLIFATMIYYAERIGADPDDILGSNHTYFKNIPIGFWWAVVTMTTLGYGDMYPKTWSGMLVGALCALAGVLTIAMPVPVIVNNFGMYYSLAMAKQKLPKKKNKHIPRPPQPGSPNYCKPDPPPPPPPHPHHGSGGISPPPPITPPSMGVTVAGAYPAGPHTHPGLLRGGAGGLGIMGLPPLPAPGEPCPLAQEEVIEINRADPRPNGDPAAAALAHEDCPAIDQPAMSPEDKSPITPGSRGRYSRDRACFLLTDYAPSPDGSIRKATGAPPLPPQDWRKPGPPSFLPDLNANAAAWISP
Assay: hKv3.3 IonWorks Quattro whole-cell current potentiation assay
Type: cell-based
Details: for mean increase in human Kv3.3 peak current at 0 mV: 12.5 micromolar; for EC50: read-out: pEC50 for Kv3.3 (converted)
Excerpt: The ability of the compounds of the invention to modulate the voltage-gated potassium channel subtypes Kv3.3/Kv3.2/Kv3.1 may be determined using the following assay. Analogous methods may be used to investigate the ability of the compounds of the invention to modulate other channel subtypes.
To assess compound effects on human Kv3.3 channels (hKv3.3), a stable cell line expressing human Kv3.3 channels was created by transfecting Chinese Hamster Ovary (CHO)-K1 cells with a pBacMire_KCNC-3 vector. Cells were cultured in DMEM/F12 (Gibco) supplemented with 10% Foetal Bovine Serum (Gibco), 1× non-essential amino acids (Invitrogen) and geneticin (G418) 400 microg/mL. Cells were grown and maintained at 37° C. in a humidified environment containing 5% CO2 in air.
The day of the experiment, cells were removed from the incubator and the culture medium removed. Cells were washed with 5 ml of Dulbecco's PBS (DPBS) calcium and magnesium free and detached by the addition of 3 ml Versene (Invitrogen, Italy) followed by a brief incubation at 37° C. for 5 minutes. The flask was tapped to dislodge cells and 10 ml of DPBS containing calcium and magnesium was added to prepare a cell suspension. The cell suspension was then placed into a 15 ml centrifuge tube and centrifuged for 2 min at 1200 rpm. After centrifugation, the supernatant was removed and the cell pellet re-suspended in 4 ml of DPBS containing calcium and magnesium using a 5 ml pipette to break up the pellet. Cell suspension volume was then corrected to give a cell concentration for the assay of approximately 3 million cells per ml.
Experiments were conducted at room temperature using IonWorks Quattro™ planar array electrophysiology technology (Molecular Devices Corp.) with PatchPlate™ PPC. Stimulation protocols and data acquisition were carried out using a microcomputer (Dell Pentium 4). Planar electrode hole resistances (Rp) were determined by applying a 10 mV voltage step across each well. These measurements were performed before cell addition. After cell addition and seal formation, a seal test was performed by applying a voltage step from −80 mV to −70 mV for 160 ms. Following this, amphotericin-B solution was added to the intracellular face of the electrode to achieve intracellular access. Cells were held at −70 mV. Leak subtraction was conducted in all experiments by applying 50 ms hyperpolarizing (10 mV) prepulses to evoke leak currents followed by a 20 ms period at the holding potential before test pulses. For hKv3.2 and hKv3.1 assays, from the holding potential of −70 mV, a first test pulse to −15 mV was applied for 100 ms and following a further 100 ms at −70 mV, a second pulse to 40 mV was applied for 50 ms. Cells were then maintained for a further 100 ms at −100 mV and then a voltage ramp from −100 mV to 40 mV was applied over 200 ms. For hKv3.3 assays, from the holding potential of −70 mV, a first test pulse to 0 mV was applied for 500 ms and following a further 100 ms at −70 mV, a second pulse to 40 mV was applied for 200 ms. These longer test pulses were used to study inactivation of hKv3.3 channels.
Test pulses protocol may be performed in the absence (pre-read) and presence (post-read) of the test compound. Pre- and post-reads may be separated by the compound addition followed by a 3-minute incubation.
The intracellular solution contained the following (in mM): K-gluconate 100, KCl 54, MgCl2 3.2, HEPES 5, adjusted to pH 7.3 with KOH. Amphotericin-B solution was prepared as 50 mg/ml stock solution in DMSO and diluted to a final working concentration of 0.1 mg/ml in intracellular solution. The external solution was Dulbecco's Phosphate Buffered Saline (DPBS) and contained the following (in mM): CaCl2 0.90, KCl 2.67, KH2PO4 1.47, MgCl·6H2O 0.493, NaCl 136.9, […] 8.06, with a pH of 7.4. […]

mean increase in human Kv3.3 peak current at 0 mV [%] | EC50 [µM] | SMILES
192 | 6.76 | Cc1ccc(Oc2ncc(N3C(=O)NC(C)(C)C3=O)cn2)c2c1OCC21CC1 [Compound 1, 5,5-dimethyl-3-[2-(7-methylspiro[2H-benzofuran-3,1′-cyclopropane]-4-yl)oxypyrimidin-5-yl]imidazolidine-2,4-dione]
113 | 11.7 | CC[C@@]1(C)NC(=O)N(c2cnc(Oc3ccc(C)c(OC(F)(F)F)c3)nc2)C1=O [Compound 2, (5R)-5-ethyl-5-methyl-3-[2-({4-methyl-3-[(trifluoromethyl)oxy]phenyl}oxy)-5-pyrimidinyl]-2,4-imidazolidinedione]
 | 17.4 | Cc1ccc(Oc2ccc(-n3c(C)n[nH]c3=O)cn2)c2c1OCC21CC1 [Compound 3, 5-methyl-4-{6-[(7-methylspiro[1-benzofuran-3,1′-cyclopropan]-4-yl)oxy]pyridin-3-yl}-2,4-dihydro-3H-1,2,4-triazol-3-one]
365 |  | CC[C@H]1NC(=O)N(c2ccc(Oc3ccc(C)c4c3C3(CC3)CO4)nc2)C1=O [Compound 4, (5R)-5-ethyl-3-[6-(7-methylspiro[2H-benzofuran-3,1′-cyclopropane]-4-yl)oxy-3-pyridyl]imidazolidine-2,4-dione]
